Results published in patent EP4603105A1, “PHARMACEUTICAL COMPOSITION CONTAINING CYCLIC COMPOUND HAVING SELECTIVE KRAS INHIBITORY EFFECT AGAINST HRAS AND NRAS” (CHUGAI SEIYAKU KABUSHIKI KAISHA, priority 2022, dated 2024).

What was measured:
[1] = molecular target: GDP-bound KRAS wild-type protein (Homo sapiens, UniProt P01116); assay: Binding to KRAS by surface plasmon resonance (SPR), dissociation constant KD; conditions: Single Cycle Kinetics, 1:1 binding model
Procedure, shortened: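 Biotinylated GDP-bound RAS was captured at about 100–300 RU. Running buffer: HBS pH 7.4, 10 mM MgCl2, 10 µM GDP, 1 mM DTT, 0.01% Tween 20, 4% DMSO.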

[2] = test system: human lung cancer strain NCI-H441; assay: NCI-H441 cell proliferation inhibitory activity (CellTiter-Glo, 4 days); format: cell-based; conditions: 50% proliferation inhibitory concentration, four days, read-out: NCl-H441 IC50
Procedure, shortened: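 Step one: dispense the test compound in serial DMSO dilutions. Step three: add the reagent and measure […].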

HRAS wild-type protein = HRAS wild-type protein (Homo sapiens, UniProt P01112); assay: Binding to HRAS by surface plasmon resonance (SPR), KD and KD ratio to KRAS; conditions: ratio of KD with respect to HRAS wild-type protein to KD with respect to KRAS
Procedure, shortened: (§1)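 Running buffer contained 10 µM GDP and 10 mM MgCl2 to keep RAS in the GDP state, with 4% DMSO at pH 7.4. Compounds were flowed at 100 µL/min in 75 s steps of rising concentration over captured biotin-Avi RAS at 30°C. Sensorgrams were fitted 1:1 for KD.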

[3] = molecular target: GDP-bound NRAS wild-type protein (Homo sapiens, UniProt P01111); assay: Binding to NRAS by surface plasmon resonance (SPR), KD and KD ratio to KRAS; conditions: ratio of KD with respect to GDP-bound NRAS wild-type protein to KD with respect to KRAS
Procedure, shortened: as §1

Chain of GDP-bound KRAS wild-type protein (P01116 1-188 isoform P01116-2): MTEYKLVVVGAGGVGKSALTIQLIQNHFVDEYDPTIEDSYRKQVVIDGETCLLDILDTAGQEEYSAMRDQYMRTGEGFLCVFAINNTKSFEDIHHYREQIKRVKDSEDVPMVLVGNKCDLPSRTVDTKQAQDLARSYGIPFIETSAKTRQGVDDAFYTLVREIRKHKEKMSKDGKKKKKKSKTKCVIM
Chain of GDP-bound NRAS wild-type protein (P01111 whole entry): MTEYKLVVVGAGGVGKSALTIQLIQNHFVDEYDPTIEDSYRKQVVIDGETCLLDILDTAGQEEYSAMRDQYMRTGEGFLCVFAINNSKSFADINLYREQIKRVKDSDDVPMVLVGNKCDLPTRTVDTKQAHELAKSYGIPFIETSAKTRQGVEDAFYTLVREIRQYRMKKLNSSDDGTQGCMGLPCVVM
Chain of HRAS wild-type protein (P01112 whole entry): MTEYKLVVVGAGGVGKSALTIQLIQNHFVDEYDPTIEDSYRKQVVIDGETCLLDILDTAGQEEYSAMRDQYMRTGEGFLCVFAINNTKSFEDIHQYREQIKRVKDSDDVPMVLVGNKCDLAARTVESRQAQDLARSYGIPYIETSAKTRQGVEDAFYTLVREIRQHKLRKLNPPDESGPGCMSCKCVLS

| SMILES | Kd [1] [nM] | IC50 [2] [nM] | HRAS /KRAS (HRAS wild-type protein) | NRAS /KRAS [3] |
| --- | --- | --- | --- | --- |
| C#CC[C@H]1C(=O)N[C@@H]([C@@H](C)CC)C(=O)N(C)CC(=O)N(C)[C@H]2CC[C@@H](C)CN(C2=O)[C@@H](Cc2ccc(C(F)(F)F)cc2)C(=O)N(C)CC(=O)N[C@@H](CCc2ccc(C(F)(F)F)c(Cl)c2)C(=O)N2CCC[C@H]2C(=O)NC2(CCCC2)C(=O)N(C)[C@@H](C2CCCC2)C(=O)N(C)[C@H](C(=O)N(C)C)CC(=O)N1C [PP1340] | 0.081 | 10.9 | B (a compound having 3 or more and less than 10 is denoted as B) | B (a compound having 3 or more and less than 10 is denoted as B) |
| CC[C@H](C)[C@@H]1NC(=O)[C@H](CC2CCC2)N(C)C(=O)C[C@@H](C(=O)N(C)C)N(C)C(=O)[C@H](C2CCCC2)N(C)C(=O)C2(CCCC2)NC(=O)[C@@H]2CCCN2C(=O)[C@H](CCc2ccc(C(F)(F)F)c(Cl)c2)NC(=O)CN(C)C(=O)[C@H](Cc2ccc(C(F)(F)F)cc2)N2C[C@H](C)CC[C@@H](C2=O)N(C)C(=O)CN(C)C1=O [PP1342] | 0.091 | 5 | B (a compound having 3 or more and less than 10 is denoted as B) | B (a compound having 3 or more and less than 10 is denoted as B) |
| CCO[C@@H]1C[C@H]2C(=O)NC3(CCCC3)C(=O)N(C)[C@@H](C3CCCC3)C(=O)N(C)[C@H](C(=O)N(C)C)CC(=O)N(C)[C@@H](CC)C(=O)N[C@@H]([C@@H](C)CC)C(=O)N(C)CC(=O)N(C)[C@H]3C[C@H](C)C(C)CN(C3=O)[C@@H](Cc3ccc(C(F)(F)F)cc3)C(=O)N(C)CC(=O)N[C@@H](CCc3cc(F)c(C(F)(F)F)c(F)c3)C(=O)N2C1 (some centres unmarked) [PP1347] | 0.017 | 3.6 | B (a compound having 3 or more and less than 10 is denoted as B) | B (a compound having 3 or more and less than 10 is denoted as B) |
| CCO[C@@H]1C[C@H]2C(=O)NC3(CCCC3)C(=O)N(C)[C@@H](C3CCCC3)C(=O)N(C)[C@H](C(=O)N3CCOCC3)CC(=O)N(C)[C@@H](CC)C(=O)N[C@@H]([C@@H](C)CC)C(=O)N(C)CC(=O)N(C)[C@H]3C[C@H](C)C(C)CN(C3=O)[C@@H](Cc3ccc(C(F)(F)F)cc3)C(=O)N(C)CC(=O)N[C@@H](CCc3cc(F)c(C(F)(F)F)c(F)c3)C(=O)N2C1 (some centres unmarked) [PP1348] | 0.076 | 8.7 | B (a compound having 3 or more and less than 10 is denoted as B) | B (a compound having 3 or more and less than 10 is denoted as B) |
| CCO[C@@H]1C[C@H]2C(=O)NC3(CCC3)C(=O)N(C)[C@@H](C3CCCC3)C(=O)N(C)[C@H](C(=O)N3CCOCC3)CC(=O)N(C)[C@@H](CC)C(=O)N[C@@H]([C@@H](C)CC)C(=O)N3CC[C@H]3C(=O)N(C)[C@H]3C[C@@H](C)[C@@H](C)CN(C3=O)[C@@H](Cc3ccc(C(F)(F)F)cc3)C(=O)N(C)CC(=O)N[C@@H](CCc3cc(F)c(C(F)(F)F)c(F)c3)C(=O)N2C1 [PP1351] | 0.13 | 12.8 | B (a compound having 3 or more and less than 10 is denoted as B) | A (a compound having 10 or more and less than 20 is denoted as A) |
| CCO[C@@H]1C[C@H]2C(=O)NC3(CCCC3)C(=O)N(C)[C@@H](C3CCCC3)C(=O)N(C)[C@H](C(=O)N(C)C)CC(=O)N(C)[C@@H](CC)C(=O)N[C@@H]([C@@H](C)CC)C(=O)N(C)CC(=O)N(C)[C@H]3C[C@@H](C)[C@@H](C)CN(C3=O)[C@@H](Cc3ccc(C(F)(F)F)cc3)C(=O)N(C)CC(=O)N[C@@H](CCc3cc(F)c(C(F)(F)F)c(F)c3)C(=O)N2C1 [PP1352] | 0.024 | 4.6 | B (a compound having 3 or more and less than 10 is denoted as B) | A (a compound having 10 or more and less than 20 is denoted as A) |
| CCO[C@@H]1C[C@H]2C(=O)NC3(CCCC3)C(=O)N(C)[C@@H](C3CCCC3)C(=O)N(C)[C@H](C(=O)N3CCOCC3)CC(=O)N(C)[C@@H](CC)C(=O)N[C@@H]([C@@H](C)CC)C(=O)N(C)CC(=O)N(C)[C@H]3C[C@@H](C)[C@@H](C)CN(C3=O)[C@@H](Cc3ccc(C(F)(F)F)cc3)C(=O)N(C)CC(=O)N[C@@H](CCc3cc(F)c(C(F)(F)F)c(F)c3)C(=O)N2C1 [PP1353] | 0.1 | 3.7 | B (a compound having 3 or more and less than 10 is denoted as B) | A (a compound having 10 or more and less than 20 is denoted as A) |
| CCO[C@@H]1C[C@H]2C(=O)NC3(CCC3)C(=O)N(C)[C@@H](C3CCCC3)C(=O)N(C)[C@H](C(=O)N3CCOCC3)CC(=O)N(C)[C@@H](CC)C(=O)N[C@@H]([C@@H](C)CC)C(=O)N(C)CC(=O)N(C)[C@H]3C[C@@H](C)[C@@H](C)CN(C3=O)[C@@H](Cc3ccc(C(F)(F)F)cc3)C(=O)N(C)CC(=O)N[C@@H](CCc3cc(F)c(C(F)(F)F)c(F)c3)C(=O)N2C1 [PP1354] | 0.056 | 3.6 | B (a compound having 3 or more and less than 10 is denoted as B) | A (a compound having 10 or more and less than 20 is denoted as A) |
| CCO[C@@H]1C[C@H]2C(=O)NC3(CCC3)C(=O)N(C)[C@@H](C3CCCC3)C(=O)N(C)[C@H](C(=O)N3CCOCC3)CC(=O)N(C)[C@@H](CC(C)C)C(=O)N[C@@H]([C@@H](C)CC)C(=O)N3CC[C@H]3C(=O)N(C)[C@H]3C[C@@H](C)[C@@H](C)CN(C3=O)[C@@H](Cc3ccc(C(F)(F)F)cc3)C(=O)N(C)CC(=O)N[C@@H](CCc3cc(F)c(C(F)(F)F)c(F)c3)C(=O)N2C1 [PP1355] | 0.16 | 10.2 | B (a compound having 3 or more and less than 10 is denoted as B) | A (a compound having 10 or more and less than 20 is denoted as A) |
| CCO[C@@H]1C[C@H]2C(=O)NC3(CCCC3)C(=O)N(C)[C@@H](C3CCCC3)C(=O)N(C)[C@H](C(=O)N(C)C)CC(=O)N(C)[C@@H](CC3CC3)C(=O)N[C@@H]([C@@H](C)CC)C(=O)N(C)CC(=O)N(C)[C@H]3C[C@@H](C)[C@@H](C)CN(C3=O)[C@@H](Cc3ccc(C(F)(F)F)cc3)C(=O)N(C)CC(=O)N[C@@H](CCc3cc(F)c(C(F)(F)F)c(F)c3)C(=O)N2C1 [PP1356] | 0.047 | 3.3 | B (a compound having 3 or more and less than 10 is denoted as B) | B (a compound having 3 or more and less than 10 is denoted as B) |
| CCO[C@@H]1C[C@H]2C(=O)NC3(CCC3)C(=O)N(C)[C@@H](C3CCCC3)C(=O)N(C)[C@H](C(=O)N3CCOCC3)CC(=O)N(C)[C@@H](CC)C(=O)N[C@@H]([C@@H](C)CC)C(=O)N3CC[C@H]3C(=O)N(C)[C@H]3C[C@@H](C)[C@@H](C)CN(C3=O)[C@@H](Cc3ccc(C(F)(F)F)cc3)C(=O)N(C)CC(=O)N[C@@H](CCc3ccc(C(F)(F)F)c(Cl)c3)C(=O)N2C1 [PP1357] | 0.13 | 5.4 | B (a compound having 3 or more and less than 10 is denoted as B) | A (a compound having 10 or more and less than 20 is denoted as A) |
| CCO[C@@H]1C[C@H]2C(=O)NC3(CCCC3)C(=O)N(C)[C@@H](C3CCCC3)C(=O)N(C)[C@H](C(=O)N(C)C)CC(=O)N(C)[C@@H](CC)C(=O)N[C@@H]([C@@H](C)CC)C(=O)N(C)CC(=O)N(C)[C@H]3C[C@@H](C)[C@@H](C)CN(C3=O)[C@@H](Cc3ccc(C(F)(F)F)cc3)C(=O)N(C)CC(=O)N[C@@H](CCc3ccc(C(F)(F)F)c(Cl)c3)C(=O)N2C1 [PP1358] | 0.03 | 4.1 | B (a compound having 3 or more and less than 10 is denoted as B) | A (a compound having 10 or more and less than 20 is denoted as A) |
| CCO[C@@H]1C[C@H]2C(=O)NC3(CCCC3)C(=O)N(C)[C@@H](C3CCCC3)C(=O)N(C)[C@H](C(=O)N3CCOCC3)CC(=O)N(C)[C@@H](CC)C(=O)N[C@@H]([C@@H](C)CC)C(=O)N(C)CC(=O)N(C)[C@H]3C[C@@H](C)[C@@H](C)CN(C3=O)[C@@H](Cc3ccc(C(F)(F)F)cc3)C(=O)N(C)CC(=O)N[C@@H](CCc3ccc(C(F)(F)F)c(Cl)c3)C(=O)N2C1 [PP1359] | 0.068 | 3.2 | B (a compound having 3 or more and less than 10 is denoted as B) | A (a compound having 10 or more and less than 20 is denoted as A) |
| CCO[C@@H]1C[C@H]2C(=O)NC3(CCC3)C(=O)N(C)[C@@H](C3CCCC3)C(=O)N(C)[C@H](C(=O)N3CCOCC3)CC(=O)N(C)[C@@H](CC)C(=O)N[C@@H]([C@@H](C)CC)C(=O)N(C)CC(=O)N(C)[C@H]3C[C@@H](C)[C@@H](C)CN(C3=O)[C@@H](Cc3ccc(C(F)(F)F)cc3)C(=O)N(C)CC(=O)N[C@@H](CCc3ccc(C(F)(F)F)c(Cl)c3)C(=O)N2C1 [PP1360] | 0.055 | 4.9 | B (a compound having 3 or more and less than 10 is denoted as B) | A (a compound having 10 or more and less than 20 is denoted as A) |
